± gives the uncertainty stated by the source.
Experiment: xn = mol fraction of the nth substance listed
Settings: 101 kPa

[Cl-].[NH4+] + CC(=O)[O-].CC[n+]1ccn(C)c1
electrical conductivity (298.15 K, x1 = 0.0505): 0.234 ± 0.0047 S/m
viscosity (298.15 K, x1 = 0.0505): 172 ± 11 mPa·s
electrical conductivity (303.15 K, x1 = 0.0505): 0.308 ± 0.0062 S/m
viscosity (303.15 K, x1 = 0.0505): 124.6 ± 8.2 mPa·s
electrical conductivity (313.15 K, x1 = 0.0999): 0.431 ± 0.0086 S/m
viscosity (313.15 K, x1 = 0.0999): 91.7 ± 5.9 mPa·s
electrical conductivity (313.15 K, x1 = 0.1702): 0.341 ± 0.0068 S/m
viscosity (313.15 K, x1 = 0.1702): 142.8 ± 9.3 mPa·s
electrical conductivity (318.15 K, x1 = 0.0505): 0.622 ± 0.012 S/m
viscosity (318.15 K, x1 = 0.0505): 55.4 ± 3.6 mPa·s
electrical conductivity (323.15 K, x1 = 0.0505): 0.755 ± 0.015 S/m
viscosity (323.15 K, x1 = 0.0505): 44 ± 2.8 mPa·s

— the CheMixHub ionic liquid set
